Tested on: Candida strains (clinical isolates from patients suffering from Candidal vaginitis)
Test: Inhibition of Candida growth in broth pH 4.5 (turbidity after 72 hours)
Format: cell-based
Conditions: for Candida growth, Strain 1: Strain 1, 37.5° C.; for Candida growth, Strain 2: Strain 2, 37.5° C.; for Candida growth, Strain 3: Strain 3, 37.5° C.; for Candida growth, Strain 4: Strain 4, 37.5° C.; for Candida growth, Strain 5: Strain 5, 37.5° C.; for Candida growth, Strain 6: Strain 6, 37.5° C.; for Candida growth, Strain 7: Strain 7, 37.5° C.; for Candida growth, Strain 8: Strain 8, 37.5° C.; for Candida growth, Strain 9: Strain 9, 37.5° C.; for Candida growth, Strain 10: Strain 10, 37.5° C.; for Candida growth, Strain 11: Strain 11, 37.5° C.; for number of the 11 Candida strains that grew: of 11 strains
From the text: 1. […] Unless otherwise illustrated, the solutions in the experiments are all aqueous solutions. 2. Experimental Method: (1) Experimental Materials:
a) Experimental strains: 11 Candida strains, all of which were screened from the clinical isolates from patients suffering from Candidal vaginitis, and were capable of growing in broth comprising 0.025% (w/v) sodium benzoate.
b) Broth: 1% yeast extract powder, 9% sucrose, 0.025% Manganese sulfate (MnSO4.4H2O), 0.058% Magnesium sulphate (MgSO4.7H2O), and 0.9% lactic acid, wherein the pH value was adjusted to 4.5 and the broth was sterilized for use;
(2) Experimental Grouping:
The requirements for aseptic technique were strictly followed to prepare the following groups of sterile test tubes: • a) sodium benzoate group: a test tube containing 5 ml broth, to which 0.025% (w/v) sodium benzoate was added; • b) sodium benzoate+sodium dehydroacetate group: 6 test tubes each containing 5 ml broth, wherein 0.0025% (w/v), 0.005% (w/v), and 0.01% (w/v) sodium dehydroacetate were added to three tubes, respectively; 0.025% (w/v) sodium benzoate was added to each of the rest 3 tubes, and then 0.0025% (w/v), 0.005% (w/v), 0.01% (w/v) sodium dehydroacetate were added to them, respectively; • c) sodium benzoate+sodium propionate group: 6 test tubes each containing 5 ml broth, wherein 0.0625% (w/v), 0.125% (w/v), and 0.25% (w/v) sodium propionate were added to three tubes, respectively; 0.025% (w/v) sodium benzoate was added to each of the rest 3 tubes, and then 0.0625% (w/v), 0.125% (w/v), and 0.25% (w/v) sodium propionate were added to them, respectively; • d) sodium benzoate+potassium sorbate group: 6 test tubes each containing 5 ml broth, wherein 0.00625% (w/v), 0.0125% (w/v), and 0.025% (w/v) potassium sorbate were added to 3 tubes, respectively; 0.025% (w/v) sodium benzoate was added to each of the rest 3 tubes, and then 0.00625% (w/v), 0.0125% (w/v), and 0.025% (w/v) potassium sorbate were added to them, respectively; • e) sodium benzoate+Ethylparaben: 6 test tubes each containing 5 ml broth, wherein 0.0125% (w/v), 0.025% (w/v), and 0.05% (w/v) Ethylparaben were added to 3 tubes, respectively; 0.025% (w/v) sodium benzoate was added to each of the rest 3 tubes, and then 0.0125% (w/v), 0.025% (w/v), and 0.05% (w/v) Ethylparaben were added to them, respectively; • f) Positive control: a broth-containing test tube with Candida but without sodium benzoate, sodium dehydroacetate, sodium propionate, sorbic acid, or Ethylparaben. • g) Negative control: a broth-containing test tube without Candida, sodium benzoate, sodium dehydroacetate, sodium propionate, sorbic acid, or Ethylparaben; (3) Experimental Methods:
The Candidal suspensions were prepared under stringent aseptic manipulation techniques. The colonies of various Candidal strains were diluted with saline, respectively. The turbidity was adjusted with a turbiditor to 0.5M (about 10^8CFU/ml), and then 1 ml 0.5M bacterial solution was added to 9 ml broth and was 10 times diluted, so that each Candidal suspension comprised Candidal organisms at 10^7CFU/ml.
Under stringent aseptic manipulation techniques, 100 μl bacterial solution thus prepared was added to each of the aforesaid a˜f test tubes and the positive control tube, and no bacterial solution was added to the negative control tube g.
These tubes were incubated in a biochemical incubator at 37.5° C. for 72 hours. The turbidity of the test tubes were observed and recorded.

Row | SMILES | Candida growth, Strain 1 | Candida growth, Strain 2 | Candida growth, Strain 3 | Candida growth, Strain 4 | Candida growth, Strain 5 | Candida growth, Strain 6 | Candida growth, Strain 7 | Candida growth, Strain 8 | Candida growth, Strain 9 | Candida growth, Strain 10 | Candida growth, Strain 11 | number of the 11 Candida strains that grew (listed as 0.01% (w/v) sodium dehydroacetate) | number of the 11 Candida strains that grew (listed as 0.05% (w/v) Ethylparaben) | number of the 11 Candida strains that grew (listed as 0.025% (w/v) potassium sorbate) | number of the 11 Candida strains that grew | number of the 11 Candida strains that grew (listed as 0.0025% (w/v) sodium dehydroacetate) | number of the 11 Candida strains that grew (listed as 0.25% (w/v) sodium propionate) | number of the 11 Candida strains that grew (listed as 0.0125% (w/v) Ethylparaben) | number of the 11 Candida strains that grew (listed as 0.00625% (w/v) potassium sorbate) | number of the 11 Candida strains that grew (listed as 0.0625% (w/v) sodium propionate)
1 | CC(=O)c1c([O-])cc(C)oc1=O.[Na+] [0.01% sodium dehydroacetate, sodium dehydroacetate] | + | − | + | + | − | + | + | + | − | + | − | 7 |  |  |  |  |  |  |  | 
2 | CCOC(=O)c1ccc(O)cc1 [0.05% Ethylparaben, Ethylparaben] | − | + | + | + | − | + | + | + | − | + | + |  | 8 |  |  |  |  |  |  | 
3 | CC(=O)c1c([O-])cc(C)oc1=O.[Na+] [0.005% sodium dehydroacetate, sodium dehydroacetate] | + | + | + | + | − | + | + | + | − | + | + |  |  |  |  |  |  |  |  | 
4 | CCOC(=O)c1ccc(O)cc1 [0.025% Ethylparaben, Ethylparaben] | + | + | + | + | + | + | + | + | + | + | + |  |  |  |  |  |  |  |  | 
5 | C/C=C/C=C/C(=O)[O-].[K+] [0.025% potassium sorbate, potassium sorbate] | + | − | + | + | + | + | + | + | − | + | + |  |  | 9 |  |  |  |  |  | 
6 | O=C([O-])c1ccccc1.[Na+] [0.025% sodium benzoate, sodium benzoate] | + | + | + | + | + | + | + | + | + | + | + |  |  |  | 11/11 |  |  |  |  | 
7 | CC(=O)c1c([O-])cc(C)oc1=O.[Na+] [0.0025% sodium dehydroacetate, sodium dehydroacetate] | + | + | + | + | − | + | + | + | + | + | + |  |  |  |  | 10 |  |  |  | 
8 | CCC(=O)[O-].[Na+] [0.25% sodium propionate, sodium propionate] | − | − | + | + | − | − | + | + | − | + | − |  |  |  |  |  | 5 |  |  | 
9 | CCOC(=O)c1ccc(O)cc1 [0.0125% Ethylparaben, Ethylparaben] | + | + | + | + | + | + | + | + | + | + | + |  |  |  |  |  |  | 11 |  | 
10 | C/C=C/C=C/C(=O)[O-].[K+] [0.0125% potassium sorbate, potassium sorbate] | + | − | + | + | + | + | + | + | − | + | + |  |  |  |  |  |  |  |  | 
11 | C/C=C/C=C/C(=O)[O-].[K+] [0.00625% potassium sorbate, potassium sorbate] | + | + | + | + | + | + | + | + | − | + | + |  |  |  |  |  |  |  | 10 | 
12 | CCC(=O)[O-].[Na+] [0.0625% sodium propionate, sodium propionate] | + | + | + | + | + | + | + | + | + | + | + |  |  |  |  |  |  |  |  | 11
